From article PMC3525568, “The Natively Disordered Loop of Bcl-2 Undergoes Phosphorylation-Dependent Conformational Change and Interacts with Pin1” (PLoS ONE, 2012)
pKd: −log10 of the molar value. Where a SMILES comes first, the peptide text is derived from it. [ ]: non-standard residue; d: D form. pS = N[C@@H](COP(=O)(O)O)C(=O)O

Legend:
JNK [1] = experiment: Phosphorylation of Bcl-2 loop peptides by JNK (HPLC); type: biochemical; conditions: peptide 200 µM, JNK 10 µM, 10 mM Tris-HCl pH 7.5, 25 mM MgCl2, 1 mM EGTA, 1 mM ATP, 30°C, 1 h; C-18 HPLC, 225 nm
Procedure: (§1) For the phosphorylation of Bcl-2 by JNK, the purified Bcl-2 (6 µM) was incubated with 0.5 µM JNK for 1 h at 30°C in a buffer containing 10 mM Tris-HCl pH 7.5, 25 mM MgCl2, 1 mM EGTA, 1 mM ATP, 1 µCi γ-^32P-ATP, and 250 µM PMSF. For the phosphorylation of Bcl-2 by ERK2, ERK2 was incubated with purified Bcl-2 in a buffer containing 50 mM Tris-HCl, 10 mM MgCl2, 2 mM dithiothreitol (DTT), 1 mM EGTA, and 0.01% Brij 35 detergent, pH 7.5. The samples were separated on 12.5% gels by SDS-PAGE and visualized using autoradiography.
(§2) The loop peptides (200 µM) were mixed with JNK or ERK2 (10 µM) in the reaction buffer as described above in the “Phosphorylation of Bcl-2”. The reaction was performed at 30°C for 1 h. The samples were passed through a Ni^2+-NTA column to remove kinases fused with the histidine-tag, and the flow-through samples were combined and loaded on a C-18 column for HPLC analysis. The samples (20 µl) were injected into the C-18 column with a flow rate of 1 ml/min. The peptide was eluted with a linear gradient of acetonitrile from 0 to 30%, and the peptide peaks were detected at 225 nm.
(§3) Supplementary file pone.0052047.s001.tif: Figure S1 Phosphorylation of Bcl-2 in the loop domain by ERK2 and JNK. (A–B) Different peptides (200 µM) were added into the reaction mixture with either (A) JNK (10 µM) or (B) ERK2 (10 µM). After reaction at 30°C for 1 h, the samples were heated at 90°C to inactivate the kinase and loaded onto C-18 column for reverse phase-HPLC analysis. (C) Point mutations of Bcl-2 (T56A and S87A) were used for the kinase reaction as described in “Materials and methods”, and the phosphorylation reactions were analyzed by using γ-^32P-ATP and followed by autoradiography. […] (E) The wild-type Bcl-2 and the flexible loop-deletion Bcl-2 mutant Bcl-2, Δ(V35–V89):6A were subject to the phosphorylation reactions by ERK2 and JNK. 1, Bcl-2 with ERK2; 2, Bcl-2Δ(V35–V89):6A with ERK2; 3, Bcl-2 with JNK; 4, Bcl-2Δ(V35–V89):6A with JNK. (TIF) Click here for additional data file.

ERK2 [2] = experiment: Phosphorylation of Bcl-2 loop peptides by ERK2 (HPLC); type: biochemical; conditions: peptide 200 µM, ERK2 10 µM, 50 mM Tris-HCl, 10 mM MgCl2, 2 mM DTT, 1 mM EGTA, 0.01% Brij 35, pH 7.5, 30°C, 1 h; C-18 HPLC, 225 nm
Procedure: as §1, §2, §3

ERK2 [3] = experiment: Phosphorylation of Bcl-2 proteins by ERK2 (γ-32P-ATP, autoradiography); type: biochemical; conditions: 50 mM Tris-HCl, 10 mM MgCl2, 2 mM DTT, 1 mM EGTA, 0.01% Brij 35, pH 7.5, SDS-PAGE
Procedure: as §1
(§4) Supplementary file pone.0052047.s001.tif: Figure S1 Phosphorylation of Bcl-2 in the loop domain by ERK2 and JNK. (A–B) Different peptides (200 µM) were added into the reaction mixture with either (A) JNK (10 µM) or (B) ERK2 (10 µM). After reaction at 30°C for 1 h, the samples were heated at 90°C to inactivate the kinase and loaded onto C-18 column for reverse phase-HPLC analysis. (C) Point mutations of Bcl-2 (T56A and S87A) were used for the kinase reaction as described in “Materials and methods”, and the phosphorylation reactions were analyzed by using γ-^32P-ATP and followed by autoradiography. […] (E) The wild-type Bcl-2 and the flexible loop-deletion Bcl-2 mutant Bcl-2, Δ(V35–V89):6A were subject to the phosphorylation reactions by ERK2 and JNK. 1, Bcl-2 with ERK2; 2, Bcl-2Δ(V35–V89):6A with ERK2; 3, Bcl-2 with JNK; 4, Bcl-2Δ(V35–V89):6A with JNK. […]

JNK [4] = experiment: Phosphorylation of Bcl-2 proteins by JNK (γ-32P-ATP, autoradiography); type: biochemical; conditions: Bcl-2 6 µM, JNK 0.5 µM, 1 h at 30°C, pH 7.5, γ-32P-ATP, SDS-PAGE
Procedure: as §1, §4

Pin1 [5] = biological target: T1, Pin1 (Homo sapiens, UniProt Q13526); experiment: Binding of peptides to 15N-labeled Pin1 by 2D 1H-15N HSQC NMR titration; parameters: decahistidine (10His) (N); made in house; own knowledge; conditions: 0.1 mM 15N-labeled Pin1, 90% H2O/10% D2O, 20 mM phosphate pH 7.0, 20 mM NaCl, 1 mM DTT, 0.01% NaN3, 300 K; HSQC chemical shift change vs ligand/protein ratio
Procedure: NMR data were acquired at 300 K on a Bruker Avance 600 equipped with a cryoprobe accessory. The NMR samples contained 0.1 mM ^15N-labeled Pin 1 in 90% H2O/10% D2O in 20 mM phosphate buffer, pH 7.0, 20 mM NaCl, 1 mM DTT, 0.01% NaN3. Chemical shift perturbations were monitored with 2D ^1H-^15N heteronuclear single quantum correlation spectroscopy (HSQC) upon addition of peptides. NMR spectra were processed using Bruker Topspin1.3. For the dissociation constant determination, lyophilized aliquots of peptides were mixed with ^15N-labeled Pin1 with different molar ratios and 2D ^15N HSQC was recorded. The dissociation constant, KD is expressed as [P]*[L]/[PL] and calculated as previously described, [21], [22].
Figure 3 Pin 1 binds to the phosphopeptide derived from the flexible loop of Bcl-2. The ^15N-labeled Pin1 (0.1 mM) was recorded with (A) 0.8 mM S87 and (B) phosphorylated S87 (pS87). The ^1H-^15N-HSQC spectra with or without peptide are show in blue and red, respectively. (C, D) Some of the amino acid chemical shifts change with the increasing peptide concentration. The arrows show the direction of chemical shift perturbations with an increasing concentration of ligand. (E, F) The relationship between chemical shift change and the ratio between ligand and protein was drawn. Values of KD were calculated from the graphs using the equation described in “Materials and methods”.

Pin1 [6] = biological target: T1, Pin1; experiment: 1H-15N HSQC of 15N-Pin1 with peptide
Pin1 [7] = biological target: T1, Pin1; experiment: 1H-15N HSQC titration of 15N-Pin1; conditions: reference: unphosphorylated S87 peptide; sites S87

Molecule | degree of phosphorylation by JNK (JNK [1]) | degree of phosphorylation by ERK2 (ERK2 [2]) | also measured
PLQTPAAPGA [T74, synthetic peptide derived from the Bcl-2 loop covering T74] | poorly phosphorylated | poorly phosphorylated | 
GPALSPVPPV [S87, synthetic peptide derived from the Bcl-2 loop covering S87] | preferred phosphorylation | preferred phosphorylation | 
Bcl-2/S87A: single mutant form of Bcl-2 protein |  |  | ERK2-mediated phosphorylation of Bcl-2 protein (ERK2 [3]): affected; JNK-mediated phosphorylation of Bcl-2 protein (JNK [4]): affected
QPGHTPHPAA [T56, synthetic peptide derived from the Bcl-2 loop covering T56] | able to phosphorylate the T56 peptide to a similar level | able to phosphorylate the T56 peptide to a similar level | 
PVARTSPLQT [S70, synthetic peptide derived from the Bcl-2 loop covering S70] | poorly phosphorylated | poorly phosphorylated | 
CC(C)C[C@H](NC(=O)[C@H](C)NC(=O)[C@@H]1CCCN1C(=O)CN)C(=O)N[C@@H](COP(=O)(O)O)C(=O)N1CCC[C@H]1C(=O)N[C@H](C(=O)N1CCC[C@H]1C(=O)N1CCC[C@H]1C(=O)N[C@H](C(=O)O)C(C)C)C(C)C [pS87] (H-GPAL[pS]PVPPV-OH) |  |  | pKd (Pin1 [5]): ~3.85
Bcl-2/T56A: single mutant form of Bcl-2 protein |  |  | JNK-mediated phosphorylation of Bcl-2 protein (JNK [4]): abolished
Bcl-2 (from UniProt P10415) pT74 peptide |  |  | binding against the reference (Pin1 [6]; reference: unphosphorylated T74 peptide, sites T74): gained
Bcl-2 (from UniProt P10415) pT56 peptide |  |  | binding against the reference (Pin1 [6]; reference: unphosphorylated T56 peptide, sites T56): gained
Bcl-2 (from UniProt P10415) pS87 peptide |  |  | binding against the reference (Pin1 [7]): gained; reference no interaction
